The NIST ThermoML archive (doi:10.1016/j.jct.2015.11.021)
Numbers after ± are expanded uncertainties.

Conditions: Liquid, Closed cell (Static) method

| Compound | vapor or sublimation pressure (303.15 K) [kPa] | vapor or sublimation pressure (323.15 K) [kPa] | vapor or sublimation pressure (343.15 K) [kPa] | vapor or sublimation pressure (363.15 K) [kPa] | vapor or sublimation pressure (373.15 K) [kPa] |
| --- | --- | --- | --- | --- | --- |
| FC(F)CC(F)(F)F [1,1,1,3,3-pentafluoropropane] | 177.8 ± 1.1 | 344.7 ± 1.2 | 610.2 ± 1.5 | 1006.7 ± 2 | 1266.2 ± 2.4 |
| CCCC [butane] | 283.7 ± 1.1 | 496.2 ± 1.2 | 809.8 ± 1.5 | 1249.8 ± 2.1 | 1526.8 ± 2.4 |
